Test results from US9757424B2, “Compositions and methods of treating gliomas” (BioMed Valley Discoveries, Inc., priority 2011, dated 2017).

How the values were obtained:
U87MG tumor fragments = assay: animal or person; conditions: for combination effect with temozolomide (median group tumor burden at Day 36): dosed in combination with 5 mg/kg temozolomide, FIG. 19
Method: HRLN female nu/nu mice were seeded with 1 mm^3 U87MG tumor fragments subcutaneously in the flank. Final caliper and body weight measurements were taken on the last day of the study.
All animals were assessed periodically for body weight, as well as tumor burden, using standard protocols with mechanical calipers. […] Dosing was stopped for any group with two measurements of mean body weight loss of greater than 20%. The group was not euthanized, and recovery was allowed. Within a group with greater than 20% weight loss, individuals reaching the individual body weight loss endpoint were euthanized. If the group body weight loss was recovered, dosing may resume. […] Dosing was then resumed with the candidate agent at half the original dose. Animals were monitored as a group. The endpoint of the experiment was a mean tumor weight in control group (or group 1) of 2000 mm^3 or 60 days, whichever comes first. When the endpoint was reached, all the animals were euthanized.

[1] = test system: U87MG human glioblastoma xenografts; assay: U87MG human glioblastoma xenograft, tumor growth delay, 49-day study (Example 2);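 note: female athymic nude mice with subcutaneous tumors, groups of ten, tumors measured twice weekly, endpoint at 2000 mm^3 tumor volume or Day 49, treated compared with control mice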
Method: The experiment consisted of groups (n=10) of female athymic nude mice bearing subcutaneous U87MG xenografts (75-144 mm^3) on Day 1. Candesartan was evaluated as monotherapies at dosages of 1, 5, 10 and 50 mg/kg administered intraperitoneally (i.p.) on a once daily for twenty-one days (qd×21) schedule. […] Dosing was initiated on Day 1, and tumors were measured twice each week until the study was ended on Day 49. Animals were monitored individually and each mouse was euthanized for endpoint when its tumor attained a volume of 2000 mm^3 (about 2 grams) or on the final day (Day 49), whichever came first. Tumor samples were collected at endpoint, and histopathology analyses were performed.
The time to endpoint (TTE) was calculated for each mouse. Treatment outcome was determined from percent tumor growth delay (% TGD), defined as the percent increase in median TTE of treated versus control mice, with differences in the TTE values between groups deemed statistically significant at P 0.05 using logrank survival analysis. Animals were also monitored for partial regression (PR) and complete regression (CR) responses. Treatment tolerability was assessed by body weight measurements and frequent observation for signs of treatment-related (TR) toxicity.
Treatment response was determined from an analysis of percent tumor growth delay (% TGD), defined as the percent increase in the median time to endpoint (TTE) in treated versus control mice; by logrank significance of differences in survival among treatment groups; and by regression responses. Plots of group mean tumor growth were also considered. Treatment tolerability was assessed by body weight measurements and frequent observation for clinical symptoms of treatment-related (TR) side effects.
Xenografts were initiated with U87MG human glioblastomas (Piedmont Research Center, Morrisville, N.C.) by serial subcutaneous transplantation in athymic nude mice. Each test mouse received a U87MG tumor fragment (1 mm^3) implanted subcutaneously in the right flank, and the growth of tumors was monitored as the average size approached the target range of 80 to 120 mm^3. […] Tumor volume was calculated using the formula: Tumor Volume (mm^3)=w^2×l/2 where w=width and l=length in mm of a U87MG tumor. Tumor weight may be estimated with the assumption that 1 mg is equivalent to 1 mm^3 of tumor volume. Therapeutic Agents
Doses of valsartan and candesartan were each formulated weekly, and were stored at 4° C. Valsartan dosing solutions were formulated at concentrations of 15 and 3 mg/mL to yield the desired 150 and 30 mg/kg dosages, respectively, in a dosing volume of 0.2 mL per 20 grams body weight (10 mL/kg). The required amount of valsartan powder for the 15 mg/mL solution was suspended in sterile saline, then dissolved with 0.1 N NaOH and pH adjusted to 7.4 with 0.1 N HCl. The 3 mg/mL valsartan dosing solution was prepared by diluting an aliquot of the 15 mg/mL valsartan solution with sterile saline. Candesartan doses were formulated in 0.5% carboxymethyl cellulose (CMC) in deionized water at concentrations of 5, 1, 0.5 and 0.1 mg/mL to yield the desired 50, 10, 5 and 1 mg/kg dosages, respectively, in a dosing volume of 10 mL/kg.
Each test agent was administered intraperitoneally (i.p.) once daily for twenty-one days (qd×21), unless otherwise indicated.
Group 1 was not treated and served as the control group for calculation of % TGD. […] Groups 4-7 received candesartan at 50, 10, 5 or 1 mg/kg, respectively. […] All doses were scaled to the body weights of the individual animals.
Tumors were measured twice each week using calipers.

[2] = combination: temozolomide 5 po qd x 5 + agent qd x 30 (doses as under E7)
[3] = combination: temozolomide 5 po qd x 5 + agent qd x 30 (doses as under E7), number of animals
[4] = Group 4: candesartan 50 mg/kg ip qd x 21
[5] = Group 5: candesartan 10 mg/kg ip qd x 21
[6] = Group 6: candesartan 5 mg/kg ip qd x 21
[7] = Group 7: candesartan 1 mg/kg ip qd x 21

Compound: CCOc1nc2cccc(C(=O)OC(C)OC(=O)OC3CCCCC3)c2n1Cc1ccc(-c2ccccc2-c2nn[nH]n2)cc1 (stereo not drawn) [Candesartan, candesartan cilexetil]
- MTV(n) Day 29 (median tumor volume) (U87MG tumor fragments; combination: temozolomide 5 po qd x 5 + agent qd x 30 (Candesartan 10 ip, Valsartan 30 ip, Carvedilol 200 po, Irbesartan 100 po, Amlodipine 10 ip, Clonidine 1 ip, Olmesartan 10 po, Ramipril 5 po, Enalapril 5 ip, Benazepril 10 ip, Quinapril 15 po, Aliskiren 50 ip, Guanabenz 1 ip, Diltiazem 20 po, Lercanidipine 3 po, Labetalol 10 sc)): 32 (8) mm^3
- Deaths NTR (non-treatment-related death) (U87MG tumor fragments; [2]): 0
- Deaths TR (treatment-related death) (U87MG tumor fragments; [2]): 0
- Mean BW Nadir, day of nadir (U87MG tumor fragments; [2]): Day 3
- Regression CR (complete regression) (U87MG tumor fragments; [3]): 0
- Regression PR (partial regression) (U87MG tumor fragments; [3]): 6
- % TGI (percent tumor growth inhibition, compared to Group 1) (U87MG tumor fragments; combination: temozolomide 5 po qd x 5 + agent qd x 30 (doses as under E7), vs Group 1 temozolomide 5 alone): 92%
- % TGD (vs Group 1) [1, 4]: 9%
- Deaths NTR [1, 4]: 0
- Deaths TR [1, 4]: 0
- MTV (n) Day 49 [1, 4]: 1 (1) mm^3
- Median TTE [1, 4]: 12.7 days
- Regressions CR [1, 4]: 1
- Regressions PR [1, 4]: 0
- Regressions TFS [1, 4]: 1
- T − C (TGD vs Group 1) [1, 4]: 1.1 days
- % TGD (vs Group 1) [1, 5]: 20%
- Deaths NTR [1, 5]: 0
- Deaths TR [1, 5]: 0
- Median TTE [1, 5]: 13.9 days
- Regressions CR [1, 5]: 0
- Regressions PR [1, 5]: 0
- Regressions TFS [1, 5]: 0
- T − C (TGD vs Group 1) [1, 5]: 2.3 days
- % TGD (vs Group 1) [1, 6]: 16%
- Deaths NTR [1, 6]: 0
- Deaths TR [1, 6]: 0
- Median TTE [1, 6]: 13.5 days
- Regressions CR [1, 6]: 0
- Regressions PR [1, 6]: 0
- Regressions TFS [1, 6]: 0
- T − C (TGD vs Group 1) [1, 6]: 1.9 days
- % TGD (vs Group 1) [1, 7]: 7%
- Deaths TR [1, 7]: 0
- Median TTE [1, 7]: 12.4 days
- Regressions CR [1, 7]: 0
- Regressions PR [1, 7]: 0
- Regressions TFS [1, 7]: 0
- T − C (TGD vs Group 1) [1, 7]: 0.8 days
- Deaths NTR ([1]; Group 7: candesartan 1 mg/kg ip qd x 21, accidental death on Day 5): 1
- efficacy conclusion ([1]; candesartan monotherapy 1, 5, 10, 50 mg/kg i.p. qd×21): not efficacious as monotherapy

Compound: COc1ccccc1OCCNCC(O)COc1cccc2[nH]c3ccccc3c12 (stereo not drawn) [Carvedilol]
- Deaths NTR (non-treatment-related death) (U87MG tumor fragments; [2]): 0
- Deaths TR (treatment-related death) (U87MG tumor fragments; [2]): 0

Compound: Clc1cccc(Cl)c1N=C1NCCN1 [Clonidine]
- Deaths NTR (non-treatment-related death) (U87MG tumor fragments; [2]): 0
- Deaths TR (treatment-related death) (U87MG tumor fragments; [2]): 0
- Mean BW Nadir, day of nadir (U87MG tumor fragments; [2]): Day 3

Compound: CCOC(=O)[C@H](CCc1ccccc1)N[C@@H](C)C(=O)N1CCC[C@H]1C(=O)O [Enalapril]
- Deaths NTR (non-treatment-related death) (U87MG tumor fragments; [2]): 0
- Deaths TR (treatment-related death) (U87MG tumor fragments; [2]): 0

Compound: N=C(N)N/N=C/c1c(Cl)cccc1Cl [Guanabenz]
- Deaths NTR (non-treatment-related death) (U87MG tumor fragments; [2]): 0
- Deaths TR (treatment-related death) (U87MG tumor fragments; [2]): 0

Compound: CC(CCc1ccccc1)NCC(O)c1ccc(O)c(C(N)=O)c1 (stereo not drawn) [Labetalol]
- Deaths NTR (non-treatment-related death) (U87MG tumor fragments; [2]): 0
- Deaths TR (treatment-related death) (U87MG tumor fragments; [2]): 0

Compound: COCCCOc1cc(C[C@@H](C[C@H](N)[C@@H](O)C[C@H](C(=O)NCC(C)(C)C(N)=O)C(C)C)C(C)C)ccc1OC [aliskerin, aliskiren]
- Deaths NTR (non-treatment-related death) (U87MG tumor fragments; [2]): 0
- Deaths TR (treatment-related death) (U87MG tumor fragments; [2]): 0

Compound: CCOC(=O)C1=C(COCCN)NC(C)=C(C(=O)OC)C1c1ccccc1Cl (stereo not drawn) [amlodipine]
- Deaths NTR (non-treatment-related death) (U87MG tumor fragments; [2]): 1
- Deaths TR (treatment-related death) (U87MG tumor fragments; [2]): 0
- Mean BW Nadir, day of nadir (U87MG tumor fragments; [2]): Day 3

Compound: CCOC(=O)[C@H](CCc1ccccc1)N[C@H]1CCc2ccccc2N(CC(=O)O)C1=O [benazepril]
- Deaths NTR (non-treatment-related death) (U87MG tumor fragments; [2]): 1
- Deaths TR (treatment-related death) (U87MG tumor fragments; [2]): 0
- combination effect with temozolomide (median group tumor burden at Day 36) (U87MG tumor fragments): next in rank-order potency

Compound: COc1ccc([C@@H]2Sc3ccccc3N(CCN(C)C)C(=O)[C@@H]2OC(C)=O)cc1 [diltiazem]
- Deaths NTR (non-treatment-related death) (U87MG tumor fragments; [2]): 0
- Deaths TR (treatment-related death) (U87MG tumor fragments; [2]): 0
- combination effect with temozolomide (median group tumor burden at Day 36) (U87MG tumor fragments): modest combination effects

Compound: CCCCC1=NC2(CCCC2)C(=O)N1Cc1ccc(-c2ccccc2-c2nnn[nH]2)cc1 [irbesartan]
- Deaths NTR (non-treatment-related death) (U87MG tumor fragments; [2]): 0
- Deaths TR (treatment-related death) (U87MG tumor fragments; [2]): 0
- Mean BW Nadir, day of nadir (U87MG tumor fragments; [2]): Day 3

Compound: COC(=O)C1=C(C)NC(C)=C(C(=O)OC(C)(C)CN(C)CCC(c2ccccc2)c2ccccc2)C1c1cccc([N+](=O)[O-])c1 (stereo not drawn) [lercanidipine]
- combination effect with temozolomide (median group tumor burden at Day 36) (U87MG tumor fragments): modest combination effects

Compound: CCCc1nc(C(C)(C)O)c(C(=O)O)n1Cc1ccc(-c2ccccc2-c2nnn[nH]2)cc1 [olmesartan]
- Mean BW Nadir, day of nadir (U87MG tumor fragments; [2]): Day 3

Compound: CCOC(=O)[C@H](CCc1ccccc1)N[C@@H](C)C(=O)N1Cc2ccccc2C[C@H]1C(=O)O [quinapril]
- Deaths NTR (non-treatment-related death) (U87MG tumor fragments; [2]): 0
- Deaths TR (treatment-related death) (U87MG tumor fragments; [2]): 0
- Mean BW Nadir, day of nadir (U87MG tumor fragments; [2]): Day 3
- combination effect with temozolomide (median group tumor burden at Day 36) (U87MG tumor fragments): next in rank-order potency

Compound: CCOC(=O)[C@H](CCc1ccccc1)N[C@@H](C)C(=O)N1[C@H](C(=O)O)C[C@@H]2CCC[C@@H]21 [ramipril]
- Deaths NTR (non-treatment-related death) (U87MG tumor fragments; [2]): 0
- Deaths TR (treatment-related death) (U87MG tumor fragments; [2]): 0
- Mean BW Nadir, day of nadir (U87MG tumor fragments; [2]): Day 3
- combination effect with temozolomide (median group tumor burden at Day 36) (U87MG tumor fragments): next in rank-order potency

Compound: CCCCC(=O)N(Cc1ccc(-c2ccccc2-c2nnn[nH]2)cc1)[C@H](C(=O)O)C(C)C [valsartan]
- Deaths NTR (non-treatment-related death) (U87MG tumor fragments; [2]): 0
- Deaths TR (treatment-related death) (U87MG tumor fragments; [2]): 0
